# Laboratory results taken from patent publication EP4782453A1 (Beyang Therapeutics Co., Ltd., priority 2023, dated 2025).
# pIC50: −log10 of the molar value.
# Biological target: T1, Menin-MLL (Homo sapiens, UniProt O00255)
# T1 construct: His-Menin (M1-L615 end); purchased BIORTUS BP9210
# T1 sequence (O00255 1-615 isoform O00255-1): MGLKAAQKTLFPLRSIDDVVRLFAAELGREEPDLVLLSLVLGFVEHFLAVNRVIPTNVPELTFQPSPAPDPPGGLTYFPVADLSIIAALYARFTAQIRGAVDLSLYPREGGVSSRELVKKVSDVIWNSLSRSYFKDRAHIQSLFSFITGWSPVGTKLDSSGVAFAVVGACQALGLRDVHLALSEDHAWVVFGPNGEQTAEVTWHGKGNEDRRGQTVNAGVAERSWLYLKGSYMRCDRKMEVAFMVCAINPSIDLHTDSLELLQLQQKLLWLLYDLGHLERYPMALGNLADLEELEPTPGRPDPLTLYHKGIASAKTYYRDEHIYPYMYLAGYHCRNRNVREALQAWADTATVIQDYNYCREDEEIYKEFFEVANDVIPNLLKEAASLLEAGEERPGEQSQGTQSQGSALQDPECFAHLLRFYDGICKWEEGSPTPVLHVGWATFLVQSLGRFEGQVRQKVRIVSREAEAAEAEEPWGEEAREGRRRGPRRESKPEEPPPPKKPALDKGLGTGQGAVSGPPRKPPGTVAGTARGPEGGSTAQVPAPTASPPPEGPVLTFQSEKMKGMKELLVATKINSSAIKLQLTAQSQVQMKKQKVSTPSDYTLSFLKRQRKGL
# Assay: Inhibitory activity against Menin-MLL binding (fluorescence polarization)
# Conditions: Menin-MLL IC50, fluorescence polarization; 150 nM His-Menin, 15 nM FITC-MLL; 25°C for 60 min
# Experimental: • His-Menin (M1-L615 end), purchased from BIORTUS, Catalog Number: BP9210; and • FITC-MLL4-43, purchased from GenScript, Catalog Number: C491HFF190-3/PE1324.
# In a 10 µL reaction solution (20 mM HEPES, pH 7.5, 50 mM NaCl, 1 mM DTT, 0.01% BSA) containing any compound from the examples, 150 nM His-Menin was added to a 384-well plate (Corning, Model: 4514). Each concentration was set up in duplicate wells. After centrifugation at 1000 RPM for 1 min, the plate was incubated at 25°C for 15 min. Then, 15 nM […] (20 mM HEPES, pH 7.5, 50 mM NaCl, 1 mM DTT, 0.01% BSA) was added to a 384-well plate. After centrifugation at 1000 RPM for 1 min, the reaction proceeded at 25°C for 60 min. Changes in fluorescence polarization were measured using a plate reader (PerkinElmer, Envision 2104). Based on the measured signals, the binding inhibition rate of the compound at each concentration was calculated, and the IC50 (half-maximal inhibitory concentration) of the compound was determined using statistical analysis software GraphPad Prism (GraphPad Software, Inc.) by means of a nonlinear fitting formula: 4-Parameter Logistic Model or Sigmoidal Dose-Response Model: Y = Bottom + (Top−Bottom)/(1 + 10^((LogIC50−X) × Hill Slope)), [formula] in which X indicates the logarithm of compound concentration, Y indicates a fluorescence polarization mP value, and Top and Bottom indicate the maximum and minimum readouts of fluorescence polarization mP values. Table 1: Inhibitory Activity of Compounds Against Menin-MLL Binding
row,Compound,pIC50
1,"CCN(C(=O)c1cc(F)ccc1-c1cc(C2CCN(C[C@H]3CC[C@H](NS(=O)(=O)CC)CC3)C2)cc2cnc(C)n12)C(C)C (mixture of isomers) [Example 35, N-ethyl-5-fluoro-2-[3-methyl-7-(1-{[(1r,4r)-4-ethanesulfonamidocyclohexyl]methyl}pyrrolidin-3-yl)imidazo[1,5-a]pyridin-5-yl]-N-(isopropyl)benzamide]",7.40
2,"CCS(=O)(=O)N[C@H]1CC[C@H](CN2CCCC(c3cc(-c4ccc(F)cc4C(=O)N(CC(F)F)C(C)C)c4cnn(C)c4c3)C2)CC1 (stereo partly drawn) [Example 170, N-(2,2-difluoroethyl)-5-fluoro-2-[1-methyl-6-(1-{[(1r,4r)-4-ethanesulfonamidocyclohexyl]methyl}piperidin-3-yl)-1H-indazol-4-yl]-N-(isopropyl)benzamide]",7.22
3,"CCS(=O)(=O)N[C@H]1CC[C@H](CC(C)N2CC(c3cc(-c4ccc(F)cc4C(=O)N4CCOC[C@H]4C)c4cnn(C)c4c3)C2)CC1 (stereo partly drawn) [Example 175, N-[(1r,4r)-4-{2-[3-(4-{4-fluoro-2-[(3R)-3-methylmorpholin-4-carbonyl]phenyl}-1-methyl-1H-indazol-6-yl)azacyclobutan-1-yl]propyl}cyclohexyl]ethan-1-sulfonamide]",6.86
4,"CCN(C(=O)c1cc(F)ccc1-c1cc(N2CCN(C(=O)C3NC4CCC3CC4)CC2)cn2c(C)ncc12)C(C)C [Compound 59, N-ethyl-5-fluoro-2-(3-methyl-6-{4-[(1R,3S,4S)-2-azabicyclo[2.2.2]octan-3-carbonyl]piperazin-1-yl}imidazo[1,5-a]pyridin-8-yl)-N-(isopropyl)benzamide]",7.64

# Same assay, conditions: fluorescence polarization; 150 nM His-Menin, 15 nM FITC-MLL; 25°C for 60 min; read-out: Menin-MLL IC50
row,pIC50,Compound
1,7.36,"CCN(C(=O)c1cc(F)ccc1-c1cc(C2CN([C@@H](CN3C[C@@H](O)[C@H](O)C3)C(C)C)C2)cn2c(C)ncc12)C(C)C [Example 446-2, 2-(6-{1-[(2R)-1-[(3R,4R)-3,4-dihydroxylpyrrolidin-1-yl]-3-methylbutan-2-yl]azacyclobutan-3-yl}-3-methylimidazo[1,5-a]pyridin-8-yl)-N-ethyl-5-fluoro-N-(isopropyl)benzamide]"
2,7.41,Cc1nc(F)c2c(-c3ccc(F)cc3C(=O)N3CCOC[C@H]3C)cc(C3CN(C[C@H]4CC[C@H](n5cncn5)CC4)C3)cn12 [Example 253]
3,7.66,"CC(=O)N1CCC([C@@H](C(C)C)N2CC(c3cc(-c4ccc(F)cc4C(=O)N4CCOC[C@H]4C)c4c(F)nc(C)n4c3)C2)CC1 [Example 357-2, 1-{4-[(1R)-1-[3-(1-fluoro-8-{4-fluoro-2-[(3R)-3-methylmorpholin-4-carbonyl]phenyl}-3-methylimidazo[1,5-a]pyridin-6-yl)azacyclobutan-1-yl]-2-methylpropyl]piperidin-1-yl}ethan-1-one]"
4,8.41,"CCN(C(=O)c1cc(F)ccc1-c1cc(C2CN([C@H](CCCN3CCOCC3)C(C)C)C2)cn2c(C)ncc12)C(C)C [Example 375, N-ethyl-5-fluoro-2-(3-methyl-6-{1-[(3R)-2-methyl-6-(morpholin-4-yl)hexan-3-yl]azacyclobutan-3-yl}imidazo[1,5-a]pyridin-8-yl)-N-(isopropyl)benzamide]"
5,8.38,"CCN(C(=O)c1cc(F)ccc1-c1cc(C2CN([C@H](CCCN3CCN(CCO)C(=O)C3)C(C)C)C2)cn2c(C)ncc12)C(C)C [Example 486, N-ethyl-5-fluoro-2-(6-{1-[(3R)-6-[4-(2-hydroxyethyl)-3-oxopiperazin-1-yl]-2-methylhexan-3-yl]azacyclobutan-3-yl}-3-methylimidazo[1,5-a]pyridin-8-yl)-N-(isopropyl)benzamide]"
6,8.20,CCN1CCN(C[C@H](C(C)C)N2CC(c3cc(-c4ccc(F)cc4C(=O)N(CC)C(C)C)c4cnn(C)c4c3)C2)CC1 [Example 418]
7,7.25,COC1CCN(CCCC(C(C)C)N2CC(c3cc(-c4ccc(F)cc4C(=O)N4CCOCC4C)c4c(F)nc(C)n4c3)C2)C1 (stereo not drawn) [Example 201-2]
8,6.78,"Cc1nc(F)c2c(-c3ccc(F)cc3C(=O)N3[C@H](C)COC[C@H]3C)cc(C3CN(CC4(O)CCOCC4)C3)cn12 [Example 220, 4-{[3-(8-{2-[(3R,5R)-3,5-dimethylmorpholin-4-carbonyl]-4-fluorophenyl}-1-fluoro-3-methylimidazo[1,5-a]pyridin-6-yl)azacyclobutan-1-yl]methyl}oxacyclohexan-4-ol]"
9,8.42,CCN(C(=O)c1cc(F)ccc1-c1cc(C2CN([C@H](CCCN3CCN(CCOC)C(=O)C3)C(C)C)C2)cn2c(C)ncc12)C(C)C [Example 496]
10,7.38,"CCN(C(=O)c1cc(F)ccc1-c1cc(C2CN([C@@H](CCCN3CCN(C(C)=O)CC3)C(C)C)C2)cn2c(C)ncc12)C(C)C [Example 311-1, 2-(6-{1-[(3S)-6-(4-acetylpiperazin-1-yl)-2-methylhexan-3-yl]azacyclobutan-3-yl}-3-methylimidazo[1,5-a]pyridin-8-yl)-N-ethyl-5-fluoro-N-(isopropyl)benzamide]"
11,7.33,"CCS(=O)(=O)N[C@@H]1CC[C@@H](CN2CC[C@@H](c3cc(-c4ccc(F)cc4C(=O)N(CC(F)F)C(C)C)c4cnc(C)n4c3)C2)OC1 [Example 163-1, N-(2,2-difluoroethyl)-2-{6-[(3S)-1-{[(2S,5R)-5-ethanesulfonamidooxacyclohexan-2-yl]methyl}pyrrolidin-3-yl]-3-methylimidazo[1,5-a]pyridin-8-yl}-5-fluoro-N-(isopropyl)benzamide]"
12,9.00,"CCNC(=O)N1CCC([C@H](C)N2CC(c3cc(-c4ccc(F)cc4C(=O)N(CC)C(C)C)c4c(F)nc(C)n4c3)C2)CC1 [Example 282-2, N-ethyl-4-[(1S)-1-[3-(8-{2-[ethyl(isopropyl)aminoformyl]-4-fluorophenyl}-1-fluoro-3-methylimidazo[1,5-a]pyridin-6-yl)azacyclobutan-1-yl]ethyl]piperidin-1-formamide]"
13,6.78,CC(C)N(CC(F)F)C(=O)c1cc(F)ccc1-c1cc(C2CCN(C[C@@H]3CC[C@@H](NC(=O)OC(C)(C)C)CO3)C2)cc2c1cnn2C (stereo partly drawn) [Example 158]
14,6.94,CNC(=O)N1CCC([C@@H](C)N2CC(c3cc(-c4ccc(F)cc4C(=O)N4CCOC[C@H]4C)c4c(F)nc(C)n4c3)C2)CC1 [Example 264-1]
15,6.57,"Cc1nc(F)c2c(-c3ccc(F)cc3C(=O)N3CCOC[C@H]3C)cc(C3CN(C[C@H]4CC[C@@H](c5ncno5)CC4)C3)cn12 [Example 207-2, (3R)-4-{5-fluoro-2-[1-fluoro-3-methyl-6-(1-{[(1s,4s)-4-(1,2,4-oxadiazol-5-yl)cyclohexyl]methyl}azacyclobutan-3-yl)imidazo[1,5-a]pyridin-8yl]benzoyl}-3-methylmorpholine]"
16,7.13,CCN(C(=O)c1cc(F)ccc1-c1cc(N2CCN(C(=O)C3NCCC3c3ccccc3)CC2)cn2c(C)nc(Cl)c12)C(C)C (stereo not drawn) [Example 127]
17,6.66,CCN(C(=O)c1cc(F)ccc1-c1cc(N2CCN(C(=O)C3NCCc4ccccc43)CC2)cn2c(C)nc(Cl)c12)C(C)C (stereo not drawn) [Example 122]
18,7.14,Cc1nc(F)c2c(-c3ccc(F)cc3C(=O)N3CCOC[C@H]3C)cc(C3CN(CC4CCN(C(=O)N(C)C)CC4)C3)cn12 [Example 246]
19,7.08,"CCN(C(=O)c1cc(F)ccc1-c1cc(N2CCN(C(=O)[C@H]3N[C@@H]4CC[C@H]3C4)CC2)cn2cncc12)C(C)C [Compound 40, 2-(6-{4-[(1R,3S,4S)-2-azabicyclo[2.2.1]heptan-3-carbonyl]piperazin-1-yl}imidazo[1,5-a]pyridin-8-yl)-N-ethyl-5-fluoro-N-(isopropyl)benzamide]"

# Same assay, conditions: read-out: Menin-MLL IC50; fluorescence polarization; 150 nM His-Menin, 15 nM FITC-MLL; 25°C for 60 min
row,Compound,pIC50
1,"CCS(=O)(=O)N[C@H]1CC[C@@H](CN2CC(c3cc(-c4ccc(F)cc4C(=O)N4[C@H](C)COC[C@H]4C)c4c(F)nc(C)n4c3)C2)CC1 [Example 198, N-[(1s,4s)-4-{[3-(8-{2-[(3R,5R)-3,5-dimethylmorpholin-4-carbonyl]-4-fluorophenyl}-1-fluoro-3-methylimidazo[1,5-a]pyridin-6-yl)azacyclobutan-1-yl]methyl}cyclohexyl]ethan-1-sulfonamide]",8.40
